{"source": "PubChem BioAssay AID2060616", "about": "(Molecular Pharmacology Branch, DTP, NCI, 2025);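 note: spheroids exposed to agents for 7 days before reading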;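 for viability, T/C: luminescence signal used as a stand-in for viable cells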", "tested_on": "377384-186-R-J1-PDC complex spheroid viability", "experiment": "Anticancer human tumor 377384-186-R-J1-PDC patient-derived pancreatic carcinoma cell line growth inhibition [CLK]", "conditions": "for IC50: curve of first compound; for viability, T/C: stronger effect = lower value", "outline": "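Patient-derived tumor cells grown as complex spheroids with HUVEC endothelial cells and mesenchymal stem cells, treated with drug combinations. Concentrations descend in half-log steps from near clinical Cmax, or from 10 microM if Cmax unknown.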", "data": [{"smiles": "CC(=O)O[C@H]1C(=O)[C@@]2(C)[C@H]([C@H](OC(=O)c3ccccc3)[C@]3(O)C[C@H](OC(=O)[C@H](O)[C@@H](NC(=O)c4ccccc4)c4ccccc4)C(C)=C1C3(C)C)[C@]1(OC(C)=O)CO[C@@H]1C[C@@H]2O", "note": "+ CNC(=O)c1ccc(Nc2nc(OC3CCCC3)c3c(-c4ccc5nc(C)oc5c4)c[nH]c3n2)c(OC)c1", "values": [{"measurement": "IC50", "setting": "second compound 0.0316 µM", "result": "< 31.6", "unit": "nM"}, {"measurement": "IC50", "setting": "second compound 0.1 µM", "result": "< 31.6", "unit": "nM"}, {"measurement": "IC50", "setting": "second compound 0.316 µM", "result": "< 31.6", "unit": "nM"}, {"measurement": "IC50", "setting": "second compound 1 µM", "result": "< 31.6", "unit": "nM"}, {"measurement": "IC50", "setting": "second compound 3.16 µM", "result": "< 31.6", "unit": "nM"}, {"measurement": "IC50", "setting": "second compound 10 µM", "result": "< 31.6", "unit": "nM"}, {"measurement": "viability, T/C", "setting": "second compound 0.0316 µM, first compound 0.0316 µM", "result": 11.1, "unit": "%"}, {"measurement": "viability, T/C", "setting": "second compound 0.0316 µM, first compound 0.1 µM", "result": 9.78, "unit": "%"}, {"measurement": "viability, T/C", "setting": "second compound 0.0316 µM, first compound 0.316 µM", "result": 11.1, "unit": "%"}, {"measurement": "viability, T/C", "setting": "second compound 0.0316 µM, first compound 1 µM", "result": 10.2, "unit": "%"}, {"measurement": "viability, T/C", "setting": "second compound 0.0316 µM, first compound 3.16 µM", "result": 12.7, "unit": "%"}, {"measurement": "viability, T/C", "setting": "second compound 0.0316 µM, first compound 10 µM", "result": 20.1, "unit": "%"}, {"measurement": "viability, T/C", "setting": "second compound 0.1 µM, first compound 0.0316 µM", "result": 14.4, "unit": "%"}, {"measurement": "viability, T/C", "setting": "second compound 0.1 µM, first compound 0.1 µM", "result": 16.9, "unit": "%"}, {"measurement": "viability, T/C", "setting": "second compound 0.1 µM, first compound 0.316 µM", "result": 20.5, "unit": "%"}, {"measurement": "viability, T/C", "setting": "second compound 0.1 µM, first compound 1 µM", "result": 21.8, "unit": "%"}, {"measurement": "viability, T/C", "setting": "second compound 0.1 µM, first compound 3.16 µM", "result": 28.9, "unit": "%"}, {"measurement": "viability, T/C", "setting": "second compound 0.1 µM, first compound 10 µM", "result": 35.2, "unit": "%"}, {"measurement": "viability, T/C", "setting": "second compound 0.316 µM, first compound 0.0316 µM", "result": 20, "unit": "%"}, {"measurement": "viability, T/C", "setting": "second compound 0.316 µM, first compound 0.1 µM", "result": 21.2, "unit": "%"}, {"measurement": "viability, T/C", "setting": "second compound 0.316 µM, first compound 0.316 µM", "result": 29, "unit": "%"}, {"measurement": "viability, T/C", "setting": "second compound 0.316 µM, first compound 1 µM", "result": 36.6, "unit": "%"}, {"measurement": "viability, T/C", "setting": "second compound 0.316 µM, first compound 3.16 µM", "result": 42.3, "unit": "%"}, {"measurement": "viability, T/C", "setting": "second compound 0.316 µM, first compound 10 µM", "result": 47.3, "unit": "%"}, {"measurement": "viability, T/C", "setting": "second compound 1 µM, first compound 0.0316 µM", "result": 21.7, "unit": "%"}, {"measurement": "viability, T/C", "setting": "second compound 1 µM, first compound 0.1 µM", "result": 22.3, "unit": "%"}, {"measurement": "viability, T/C", "setting": "second compound 1 µM, first compound 0.316 µM", "result": 29.6, "unit": "%"}, {"measurement": "viability, T/C", "setting": "second compound 1 µM, first compound 1 µM", "result": 37.9, "unit": "%"}, {"measurement": "viability, T/C", "setting": "second compound 1 µM, first compound 3.16 µM", "result": 40.5, "unit": "%"}, {"measurement": "viability, T/C", "setting": "second compound 1 µM, first compound 10 µM", "result": 49.1, "unit": "%"}, {"measurement": "viability, T/C", "setting": "second compound 3.16 µM, first compound 0.0316 µM", "result": 18, "unit": "%"}, {"measurement": "viability, T/C", "setting": "second compound 3.16 µM, first compound 0.1 µM", "result": 21.7, "unit": "%"}, {"measurement": "viability, T/C", "setting": "second compound 3.16 µM, first compound 0.316 µM", "result": 27.5, "unit": "%"}, {"measurement": "viability, T/C", "setting": "second compound 3.16 µM, first compound 1 µM", "result": 34.4, "unit": "%"}, {"measurement": "viability, T/C", "setting": "second compound 3.16 µM, first compound 3.16 µM", "result": 38.6, "unit": "%"}, {"measurement": "viability, T/C", "setting": "second compound 3.16 µM, first compound 10 µM", "result": 45.5, "unit": "%"}, {"measurement": "viability, T/C", "setting": "second compound 10 µM, first compound 0.0316 µM", "result": 17.7, "unit": "%"}, {"measurement": "viability, T/C", "setting": "second compound 10 µM, first compound 0.1 µM", "result": 22.3, "unit": "%"}, {"measurement": "viability, T/C", "setting": "second compound 10 µM, first compound 0.316 µM", "result": 29.7, "unit": "%"}, {"measurement": "viability, T/C", "setting": "second compound 10 µM, first compound 1 µM", "result": 37.2, "unit": "%"}, {"measurement": "viability, T/C", "setting": "second compound 10 µM, first compound 3.16 µM", "result": 38.7, "unit": "%"}, {"measurement": "viability, T/C", "setting": "second compound 10 µM, first compound 10 µM", "result": 42.8, "unit": "%"}]}, {"smiles": "NC(=O)C(=Cn1cnc(-c2cc(C(F)(F)F)cc(C(F)(F)F)c2)n1)c1cncnc1", "note": "+ CNC(=O)c1ccc(Nc2nc(OC3CCCC3)c3c(-c4ccc5nc(C)oc5c4)c[nH]c3n2)c(OC)c1", "values": [{"measurement": "IC50", "setting": "second compound 0.0316 µM", "result": 52.6, "unit": "nM"}, {"measurement": "IC50", "setting": "second compound 0.1 µM", "result": 12.3, "unit": "nM"}, {"measurement": "IC50", "setting": "second compound 0.316 µM", "result": "< 9.49", "unit": "nM"}, {"measurement": "IC50", "setting": "second compound 1 µM", "result": "< 9.49", "unit": "nM"}, {"measurement": "IC50", "setting": "second compound 3.16 µM", "result": "< 9.49", "unit": "nM"}, {"measurement": "IC50", "setting": "second compound 10 µM", "result": "< 9.49", "unit": "nM"}, {"measurement": "viability, T/C", "setting": "second compound 0.0316 µM, first compound 0.00949 µM", "result": 97.1, "unit": "%"}, {"measurement": "viability, T/C", "setting": "second compound 0.0316 µM, first compound 0.03 µM", "result": 59.2, "unit": "%"}, {"measurement": "viability, T/C", "setting": "second compound 0.0316 µM, first compound 0.0949 µM", "result": 40.4, "unit": "%"}, {"measurement": "viability, T/C", "setting": "second compound 0.0316 µM, first compound 0.3 µM", "result": 21.2, "unit": "%"}, {"measurement": "viability, T/C", "setting": "second compound 0.0316 µM, first compound 0.949 µM", "result": 5.59, "unit": "%"}, {"measurement": "viability, T/C", "setting": "second compound 0.0316 µM, first compound 3 µM", "result": 2.3, "unit": "%"}, {"measurement": "viability, T/C", "setting": "second compound 0.1 µM, first compound 0.00949 µM", "result": 52.9, "unit": "%"}, {"measurement": "viability, T/C", "setting": "second compound 0.1 µM, first compound 0.03 µM", "result": 39.7, "unit": "%"}, {"measurement": "viability, T/C", "setting": "second compound 0.1 µM, first compound 0.0949 µM", "result": 25.5, "unit": "%"}, {"measurement": "viability, T/C", "setting": "second compound 0.1 µM, first compound 0.3 µM", "result": 16.1, "unit": "%"}, {"measurement": "viability, T/C", "setting": "second compound 0.1 µM, first compound 0.949 µM", "result": 3.56, "unit": "%"}, {"measurement": "viability, T/C", "setting": "second compound 0.1 µM, first compound 3 µM", "result": 1.95, "unit": "%"}, {"measurement": "viability, T/C", "setting": "second compound 0.316 µM, first compound 0.00949 µM", "result": 19.2, "unit": "%"}, {"measurement": "viability, T/C", "setting": "second compound 0.316 µM, first compound 0.03 µM", "result": 17.7, "unit": "%"}, {"measurement": "viability, T/C", "setting": "second compound 0.316 µM, first compound 0.0949 µM", "result": 17.1, "unit": "%"}, {"measurement": "viability, T/C", "setting": "second compound 0.316 µM, first compound 0.3 µM", "result": 8.59, "unit": "%"}, {"measurement": "viability, T/C", "setting": "second compound 0.316 µM, first compound 0.949 µM", "result": 2.04, "unit": "%"}, {"measurement": "viability, T/C", "setting": "second compound 0.316 µM, first compound 3 µM", "result": 2.27, "unit": "%"}, {"measurement": "viability, T/C", "setting": "second compound 1 µM, first compound 0.00949 µM", "result": 18.9, "unit": "%"}, {"measurement": "viability, T/C", "setting": "second compound 1 µM, first compound 0.03 µM", "result": 20.9, "unit": "%"}, {"measurement": "viability, T/C", "setting": "second compound 1 µM, first compound 0.0949 µM", "result": 16.2, "unit": "%"}, {"measurement": "viability, T/C", "setting": "second compound 1 µM, first compound 0.3 µM", "result": 7.4, "unit": "%"}, {"measurement": "viability, T/C", "setting": "second compound 1 µM, first compound 0.949 µM", "result": 1.54, "unit": "%"}, {"measurement": "viability, T/C", "setting": "second compound 1 µM, first compound 3 µM", "result": 0.93, "unit": "%"}, {"measurement": "viability, T/C", "setting": "second compound 3.16 µM, first compound 0.00949 µM", "result": 18.7, "unit": "%"}, {"measurement": "viability, T/C", "setting": "second compound 3.16 µM, first compound 0.03 µM", "result": 18.7, "unit": "%"}, {"measurement": "viability, T/C", "setting": "second compound 3.16 µM, first compound 0.0949 µM", "result": 15.5, "unit": "%"}, {"measurement": "viability, T/C", "setting": "second compound 3.16 µM, first compound 0.3 µM", "result": 6.58, "unit": "%"}, {"measurement": "viability, T/C", "setting": "second compound 3.16 µM, first compound 0.949 µM", "result": 1.89, "unit": "%"}, {"measurement": "viability, T/C", "setting": "second compound 3.16 µM, first compound 3 µM", "result": 1.09, "unit": "%"}, {"measurement": "viability, T/C", "setting": "second compound 10 µM, first compound 0.00949 µM", "result": 21.7, "unit": "%"}, {"measurement": "viability, T/C", "setting": "second compound 10 µM, first compound 0.03 µM", "result": 17.9, "unit": "%"}, {"measurement": "viability, T/C", "setting": "second compound 10 µM, first compound 0.0949 µM", "result": 12.8, "unit": "%"}, {"measurement": "viability, T/C", "setting": "second compound 10 µM, first compound 0.3 µM", "result": 6.06, "unit": "%"}, {"measurement": "viability, T/C", "setting": "second compound 10 µM, first compound 0.949 µM", "result": 1.42, "unit": "%"}, {"measurement": "viability, T/C", "setting": "second compound 10 µM, first compound 3 µM", "result": 1.91, "unit": "%"}]}]}
